≈ marks a conversion by molar mass, not a printed value.
Columns and labels:
Beta-lactamase = Beta-lactamase (Escherichia coli K-12, UniProt P00811); experiment: Inhibitory activity against AmpC (class C) beta-lactamase
Beta-lactamase TEM = Beta-lactamase TEM (Escherichia coli, UniProt P62593); experiment: Inhibitory activity against TEM-1 (class A) beta-lactamase
Mus musculus [1] = experiment: In vivo inhibitory activity against Serratia marcescens in mice; assay type: functional
Escherichia coli = experiment: In vitro inhibitory activity against Escherichia coli; assay type: functional
Serratia marcescens = experiment: In vitro inhibitory activity against Serratia marcescens; assay type: functional
Mus musculus [2] = experiment: In vivo inhibitory activity against Escherichia coli in mice; assay type: functional

Sequence of Beta-lactamase (P00811 whole entry): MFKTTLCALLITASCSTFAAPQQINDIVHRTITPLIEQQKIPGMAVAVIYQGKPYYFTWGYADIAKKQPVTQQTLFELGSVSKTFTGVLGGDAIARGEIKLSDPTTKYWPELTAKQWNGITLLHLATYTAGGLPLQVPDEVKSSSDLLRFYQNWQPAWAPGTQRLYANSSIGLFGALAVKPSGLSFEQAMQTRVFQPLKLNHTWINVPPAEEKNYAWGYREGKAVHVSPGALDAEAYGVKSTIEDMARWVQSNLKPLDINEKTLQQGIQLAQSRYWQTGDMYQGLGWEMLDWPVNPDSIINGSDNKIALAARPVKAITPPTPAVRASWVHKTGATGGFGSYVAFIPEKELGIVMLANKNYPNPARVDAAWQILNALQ
Sequence of Beta-lactamase TEM (P62593 whole entry): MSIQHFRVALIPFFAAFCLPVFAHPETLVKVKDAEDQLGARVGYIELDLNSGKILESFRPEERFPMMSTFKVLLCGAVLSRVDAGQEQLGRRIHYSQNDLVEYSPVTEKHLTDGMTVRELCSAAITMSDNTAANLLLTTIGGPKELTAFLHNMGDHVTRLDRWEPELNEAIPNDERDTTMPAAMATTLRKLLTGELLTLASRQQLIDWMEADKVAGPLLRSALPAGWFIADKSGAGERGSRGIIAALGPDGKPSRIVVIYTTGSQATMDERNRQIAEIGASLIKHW

Row | MIC (Escherichia coli) [µg/mL] | MIC (Serratia marcescens) [µg/mL] | SMILES | IC50 (Beta-lactamase) [µM] | IC50 (Beta-lactamase TEM) [µM] | ED50 (Mus musculus [1]) [mg/kg] | ED50 (Mus musculus [2]) [mg/kg]
1 | – | – | C[C@@H](O)[C@H]1C(=O)N2[C@@H](C(=O)O)C(C)(C)S(=O)(=O)[C@H]12 | 10.2 | 47.9 | – | –
2 | – | – | C[C@H](O)[C@H]1C(=O)N2[C@@H](C(=O)O)C(C)(C)S(=O)(=O)[C@H]12 | 1.6 | > 334 | – | –
3 | – | – | CC(C)[C@H](NC[C@H]1OCC[C@H]1SC1=C(C(=O)O)N2C(=O)[C@H]([C@@H](C)O)C2[C@H]1C)C(=O)O (stereo partly drawn) | 0.068 | 0.091 | – | –
4 | – | – | C[C@@H](O)[C@H]1C(=O)N2C(C(=O)O)=C(S[C@@H]3CCO[C@@H]3CN)[C@H](C)[C@H]12 | 0.18 | 0.035 | – | –
5 | – | – | C[C@H](O)[C@@H]1C(=O)N2[C@@H](C(=O)O)C(C)(C)S(=O)(=O)[C@H]12 | 0.12 | 204 | – | –
6 | – | – | CC1(C)S[C@@H]2[C@H](CO)C(=O)N2[C@H]1C(=O)O | 65.9 | 31 | – | –
7 | > 64 | 32 (≈ 61.8 µM) | CCN1CCN(C(=O)N[C@@H](C(=O)N[C@@H]2C(=O)N3[C@@H]2SC(C)(C)[C@@H]3C(=O)O)c2ccccc2)C(=O)C1=O [PIPERACILLIN] | – | – | 128 | 256
8 | – | – | CC1(C)[C@H](C(=O)O)N2C(=O)[C@H](CO)[C@H]2S1(=O)=O | 5.8 | – | – | –
9 | – | – | CC1(C)S[C@@H]2[C@@H](CO)C(=O)N2[C@H]1C(=O)O | 220 | 59 | – | –
10 | 4 (≈ 15.2 µM) | 8 (≈ 30.4 µM) | CC1(C)[C@H](C(=O)O)N2C(=O)[C@@H](CO)[C@H]2S1(=O)=O | 1.16 | – | 30 | 8

Row | SMILES | MIC (Escherichia coli) [µg/mL] | MIC (Serratia marcescens) [µg/mL] | IC50 (Beta-lactamase) [µM] | IC50 (Beta-lactamase TEM) [µM] | ED50 (Mus musculus [1]) [mg/kg] | ED50 (Mus musculus [2]) [mg/kg]
11 | C[C@]1(Cn2ccnn2)[C@H](C(=O)[O-])N2C(=O)C[C@H]2S1(=O)=O.[Na+] [TAZOBACTAM SODIUM] | 2 | 32 | – | – | 144 | 7.7
